These results are taken from ChEMBL document CHEMBL1133350, “Novel DMARDs on the basis of a new concept of dual cytokine regulation, TNF-alpha suppression and IL-10 augmentation” (Bioorg Med Chem Lett, 2000).

Data set [1] is described as follows: Partition coefficient (logP). Particulars: octanol/water.
In data set [2] the test system is Rattus norvegicus. The experiment in a line: The compound (10 mg/kg) was tested for its therapeutic effect in an adjuvant-induced arthritis rat. Type of data set: functional.
Data set [3] has as its system Mus musculus. Briefly: The compound (10 mg/kg) administered perorally was tested for its ability to augment IL-10 in LPS-stimulated mice. Type of data set: functional.
Data set [4] relates to Mus musculus. The experiment in a line: Inhibit tumor necrosis factor alpha production in LPS-stimulated mice after peroral administration of 10 mg/kg. Type of data set: functional. The settings on record: route oral.
Data set [5] in a line: Bioavailability of the compound in rats after administration of 30 mg/kg. The settings on record: rat, in vivo, read-out: Bioavailabiility. Type of data set: ADME, organism-based.
The test system of data set [6] is Rattus norvegicus. The experiment in a line: The compound (30 mg/kg) was tested for its therapeutic effect in an adjuvant-induced arthritis rat. Type of data set: functional.

Molecules are shown by their SMILES.

Regarding `CC(=O)NC1(c2ccc(CN3CCN(c4cccc(F)n4)CC3)cc2)CC1`, in data set [1], the logP was 1.8. Further, in data set [2], the Therapeutic effect is on record as 55%. Also, the “IL-10 level (% of control)” value in data set [3] is on record as 454%. In addition, testing at 10 mg/kg in data set [4] gave an inhibition in vivo of 84%.
In the same order, the values of `CC(=O)NCc1ccc(CN2CCN(c3cccc(F)n3)CC2)cc1` are 1.45, 144%, 973% and 85%.
Consider `CC(=O)NC1(c2ccc(CN3CCN(c4ncccn4)CC3)cc2)CC1`, for which the logP in data set [1] worked out at 0.75. Also, the Therapeutic effect in data set [2] is recorded as 163%. Besides, the “IL-10 level (% of control)” value in data set [3] is 419%. This compound also registered an inhibition in vivo at 10 mg/kg in data set [4] of 88%. Further, the bioavailability in data set [5] was found to be 76%.
Take `CC(=O)NCc1ccc(CN2CCN(c3ccccc3)CC2)cc1`: in data set [1], the log partition coefficient (logP) worked out at 1.55. Further, the Therapeutic effect in data set [6] stood at 35%. In addition, the “IL-10 level (% of control)” value in data set [3] is recorded as 376%. In data set [4], this compound yielded an inhibition in vivo at 10 mg/kg of 89%.
In the same order, the values of `CC(=O)NC(C)(C)c1ccc(CN2CCN(c3ccccc3)CC2)cc1` are 2.83, 80%, 561% and 88%.
With `CCC(NC(C)=O)c1ccc(CN2CCN(c3ccccc3)CC2)cc1` (stereo unspecified), the logP in data set [1] was found to be 2.59. For the same compound, the “IL-10 level (% of control)” value in data set [3] is on record as 222%. In data set [4], this compound gave an inhibition in vivo at 10 mg/kg of 82%.
On the same counts, the results for `CC(=O)NCc1ccc(CN2CCN(c3ccncc3)CC2)cc1` are 0.51, 198% and 40%.
On to `CC(=O)NC(C)c1ccc(CN2CCN(c3nccs3)CC2)cc1` (stereo unspecified), for which, in data set [1], the logP came out at 1.76. Moreover, the Therapeutic effect in data set [2] is listed as 101%. The “IL-10 level (% of control)” value in data set [3] is listed as 621%. In data set [4], this compound had an inhibition in vivo at 10 mg/kg of 84%.
`CC(=O)NC(C)(C)c1ccc(CN2CCN(c3nccs3)CC2)cc1` registered a logP in data set [1] of 2.01. Also, the Therapeutic effect in data set [2] was found to be 131%. Moreover, the “IL-10 level (% of control)” value in data set [3] was found to be 712%. Testing at 10 mg/kg in data set [4] gave an inhibition in vivo of 85%.
On the same counts, the results for `CC(=O)NC1(c2ccc(CN3CCN(c4nccs4)CC3)cc2)CC1` are 1.58, 133%, 646% and 84%.
In data set [1], `CC(=O)NC(C)(C)c1ccc(CN2CCN(c3ncccn3)CC2)cc1` yielded a logP of 1.18. Moreover, the “IL-10 level (% of control)” value in data set [3] is 200%. For the same compound, at 10 mg/kg the inhibition in vivo in data set [4] was 77%.
On the same counts, the results for `CC(=O)NC1(c2ccc(CN3CCN(c4ccccc4)CC3)cc2)CC1` are 1.9, 712% and 90%.
`CC(=O)NCc1ccc(CN2CCN(c3ccccn3)CC2)cc1` came in with a logP in data set [1] of 0.88. The Therapeutic effect in data set [2] came out at 62%. The “IL-10 level (% of control)” value in data set [3] is reported as 642%. Also, the inhibition in vivo at 10 mg/kg in data set [4] was found to be 88%.
In turn, `CCC(CC)(NC(C)=O)c1ccc(CN2CCN(c3ccccc3)CC2)cc1` came in with a logP in data set [1] of 3.35. In addition, the “IL-10 level (% of control)” value in data set [3] is recorded as 321%. This compound also displayed an inhibition in vivo at 10 mg/kg in data set [4] of 81%.
On the same counts, the results for `CC(=O)NC(C)c1ccc(CN2CCN(c3ccccc3)CC2)cc1` (stereo unspecified) are 2.08, 270% and 87%.
In turn, `CC(=O)NC(C)c1ccc(CN2CCN(c3cccc(F)n3)CC2)cc1` (stereo unspecified) had a logP in data set [1] of 1.99. Also, the Therapeutic effect in data set [2] is reported as 173%. Further, the “IL-10 level (% of control)” value in data set [3] was 404%. Moreover, in data set [4], the inhibition in vivo at 10 mg/kg stood at 82%.
In the same order, the values of `CC(=O)NC(C)(C)c1ccc(CN2CCN(c3cccc(F)n3)CC2)cc1` are 2.24, 142%, 579% and 88%.
On to `CC(=O)NCc1ccc(CN2CCN(c3ccc(F)cc3F)CC2)cc1`, for which the Therapeutic effect in data set [6] is 173%. The “IL-10 level (% of control)” value in data set [3] is on record as 2293%. Also, testing at 10 mg/kg in data set [4] gave an inhibition in vivo of 91%.
`CC(=O)NC(C)c1ccc(CN2CCN(c3ncccn3)CC2)cc1` (stereo unspecified) gave a logP in data set [1] of 0.93. Also, the “IL-10 level (% of control)” value in data set [3] amounted to 298%. In data set [4], this compound came in with an inhibition in vivo at 10 mg/kg of 78%.
In data set [1], `CC(=O)NCc1ccc(CN2CCN(c3nccs3)CC2)cc1` displayed a logP of 1.23. For the same compound, in data set [2], the Therapeutic effect came to 80%. Further, the “IL-10 level (% of control)” value in data set [3] is recorded as 1150%. Further, the inhibition in vivo at 10 mg/kg in data set [4] was determined as 85%.
Consider `CC(=O)NCc1ccc(CN2CCN(c3cnccn3)CC2)cc1`, for which the log partition coefficient (logP) in data set [1] was -0.09. The “IL-10 level (% of control)” value in data set [3] was found to be 334%. Besides, the inhibition in vivo at 10 mg/kg in data set [4] was determined as 76%.
In the same order, the values of `CC(=O)NCc1ccc(CN2CCN(c3cccnc3)CC2)cc1` are 0.49, 236% and 61%.
On the same counts, the results for `CC(=O)NCc1ccc(CN2CCN(c3nccn3C)CC2)cc1` are 0.67, 747% and 62%.
On to `CC(=O)NCc1ccc(CN2CCN(c3ncccn3)CC2)cc1`, for which the logP in data set [1] turned out to be 0.4. Further, the Therapeutic effect in data set [2] stood at 46%. In data set [3], the “IL-10 level (% of control)” value was found to be 713%. The compound further came in with an inhibition in vivo at 10 mg/kg in data set [4] of 82%.
